Laboratory results as given in patent publication US7566453B2, “Methods for treating melanomas” (Chugai Seiyaku Kabushiki Kaisha, priority 1998, dated 2009).

Tested on: KPMM2 cells
Settings: fixed concentration of anti-human IL-6 receptor antibody; 0.1 or 1 ng/ml IL-6 (FIG. 1 to 6)
Protocol: The effects of anti-human IL-6 receptor antibody on sensitivity of KPMM2 cells to chemotherapeutic agents used for treatment of myeloma such as adriamycin (ADR, manufactured by Kyowa Hakko), vincristine (VCR, manufactured by Sigma Chemical Co.), and melphalan (L-PAM, manufactured by Sigma Chemical Co.) were evaluated.
KPMM2 is a multiple myeloma cell line derived from the ascites of a human patient with myeloma (see Japanese Unexamined Patent Publication (Kokai) No. 7-236475). […] The growth activity of the cell was evaluated by incorporation of ^3H-labeled thymidine (manufactured by Amersham) into the cell.
The KPMM2 cells that had been maintained were washed thoroughly with a fresh medium (RPMI1640 medium supplemented with 20% FBS), and then were adjusted to 4×10^5/ml, which was dispensed in 50 μl aliquots in a 96-well flat-bottomed microtiter plate (manufactured by Falcon). Furthermore, a medium containing a recombinant human IL-6 (Asagoe, Y. et al., Bio/Technology (1988) 6, 806-809), anti-human IL-6 receptor antibody hPM-1 (see the above reference example 1 or International Patent Application WO 92-15759), and the above chemotherapeutic agents or a fresh medium as control were added to make 200 μl in each well.
The plate was incubated at 37° C. for 4 days under the humidified condition in the presence of 5% CO2. At four hours before the end of incubation, 10 μl of ^3H-labeled thymidine solution (100 μCi/ml) was added to each well, and then incubated for more 4 hours. At the end of incubation, the cells were collected onto the glass filter (manufactured by Printed Filtermat A, WALLAC) using a harvester (Micro 96 Harvester, manufactured by SKATRON Instruments). The radioactivity incorporated into the cells was measured by a microbeta (1450 MicroBeta, manufactured by WALLAC).
The activity of growth inhibition on KPMM2 was expressed using the effect by a chemotherapeutic agent alone as the control. Using the incorporation of ^3H-labeled thymidine into the cell for each experimental group in which a each concentration of a chemotherapeutic agent was added as 100, the amount of ^3H-labeled thymidine incorporated into the cell in an experimental group in which anti-human IL-6 receptor antibody was simultaneously added was compared as an index.

Compound	relationship of growth index with the concentration of chemotherapeutic agent
COc1cccc2c1C(=O)c1c(O)c3c(c(O)c1C2=O)C[C@@](O)(C(=O)CO)C[C@@H]3O[C@H]1C[C@H](N)[C@H](O)[C@H](C)O1 [adriamycin]	almost constant regardless of their concentration
CC[C@]1(O)C[C@H]2CN(CCc3c([nH]c4ccccc34)[C@@](C(=O)OC)(c3cc4c(cc3OC)N(C=O)[C@H]3[C@@](O)(C(=O)OC)[C@H](OC(C)=O)[C@]5(CC)C=CCN6CC[C@]43[C@@H]65)C2)C1 [vincristine]	almost constant regardless of their concentration
